Measured values as given in patent US20070128217A1 (priority 2003, published 2007).

Legend:
[1] = system: antibodies in sera from SARS patients (sera 1a, 1b, 2, 6, 37, 62, London, SARS-yellow, SARS-green); format: binding, human; parameters: Binding of serum 6 to linear peptides of protein X1 of SARS-CoV Urbani / Binding of serum 37 to linear peptides of protein X1 of SARS-CoV Urbani / Binding of serum 6 to looped/cyclic peptide (PEPSCAN-ELISA) / Binding of serum 37 to looped/cyclic peptide (PEPSCAN-ELISA) / Binding of serum 37 to looped/cyclic peptides of protein X1 of SARS-CoV Urbani / Binding of serum 6 to linear peptides of protein X2 / Binding of serum 37 to linear peptides of protein X2 / Binding of serum 37 to looped/cyclic peptides of protein X2 of SARS-CoV Urbani / Binding of serum 6 to linear peptides of protein M of SARS-CoV Urbani / Binding of serum 37 to linear peptides of protein M of SARS-CoV Urbani / Binding of serum 6 to looped/cyclic peptides of protein M of SARS-CoV Urbani / Binding of serum 37 to looped/cyclic peptides of protein M of SARS-CoV Urbani / Binding of serum 6 to linear peptides of protein X3 of SARS-CoV Urbani / Binding of serum 37 to linear peptides of protein X3 of SARS-CoV Urbani / Binding of serum 37 to looped/cyclic peptides of protein X3 of SARS-CoV Urbani / Binding of serum 6 to linear peptides of protein X4 of SARS-CoV Urbani / Binding of serum 37 to linear peptides of protein X4 of SARS-CoV Urbani / Binding of serum 37 to looped/cyclic peptides of protein X4 of SARS-CoV Urbani / Binding of serum 6 to linear peptides of protein X5 of SARS-CoV Urbani / Binding of serum 37 to linear peptides of protein X5 of SARS-CoV Urbani / Binding of serum 37 to looped/cyclic peptides of protein X5 of SARS-CoV Urbani / Binding of serum 6 to linear peptides of protein N of SARS-CoV Urbani / Binding of serum 37 to linear peptides of protein N of SARS-CoV Urbani / Binding of serum 6 to linear peptide (PEPSCAN-ELISA) / Binding of serum 1a to looped/cyclic peptides of protein N of SARS-CoV Urbani / Binding of serum 1b to looped/cyclic peptides of protein N of SARS-CoV Urbani / Binding of serum 2 to looped/cyclic peptides of protein N of SARS-CoV Urbani / Binding of serum 6 to looped/cyclic peptides of protein N of SARS-CoV Urbani / Binding of serum 37 to looped/cyclic peptides of protein N of SARS-CoV Urbani / Binding of serum 62 to looped/cyclic peptides of protein N of SARS-CoV Urbani / Binding of serum London to looped/cyclic peptides of protein N of SARS-CoV Urbani / Binding of serum SARS-green to looped/cyclic peptides of protein N of SARS-CoV Urbani: unit not given here
[2] = system: control sera (pooled serum of ten healthy LUMC hospital workers; commercial negative donor pooled serum from the Dutch bloodbank); format: binding, human; parameters: Binding of Control serum LUMC to linear peptides / Binding of Control serum Blood-bank to linear peptides / Binding of Control serum LUMC to looped peptides / Binding of Control Serum Blood-Bank to Looped peptides / Binding of Control serum LUMC to linear peptides of the protein M of SARS-CoV Urbani / Binding of Control serum Blood-bank to linear peptides of the protein M of SARS-CoV Urbani / Binding of Control serum LUMC to looped peptides of the protein M of SARS-CoV Urbani / Binding of Control Serum Blood-Bank to Looped peptides of the protein M of SARS-CoV Urbani: unit not given here
[3] = system: rabbit serum obtained by immunizing a rabbit with the SARS-CoV strain Frankfurt 1; format: binding; parameters: Binding of a rabbit serum to linear peptides / Binding of a rabbit serum to looped peptides / Rabbit serum linear peptides / Rabbit serum looped peptides / Binding of a rabbit serum to linear peptides of protein N of SARS-CoV Urbani (Rabbit serum linear peptides) / Binding of a rabbit serum to looped/cyclic peptides of protein N of SARS-CoV Urbani (Rabbit serum looped peptides): unit not given here

Which “Binding of serum 1a to linear peptides of protein X2” value [1] does the source give for ALQELLIQQWIQFMM here?
The value was 0.7.

What about the “Binding of serum 1a to looped/cyclic peptides of protein X2 of SARS-CoV Urbani” value [1] of the same sequence?
The value was 0.7.

And the “Binding of serum 1b to linear peptides of protein X2” value [1]?
Its value is 0.6.

What about the “Binding of serum 1b to looped/cyclic peptides of protein X2 of SARS-CoV Urbani” value [1] of the same sequence?
Its value is 0.5.

And the “Binding of serum 2 to linear peptides of protein X2” value [1]?
Its value is 0.4.

And the “Binding of serum 2 to looped/cyclic peptides of protein X2 of SARS-CoV Urbani” value [1]?
Its value is 0.4.

What about the “Binding of serum 6 to linear peptides of protein X2” value [1] of the same sequence?
The value was 0.4.

What about the “Binding of serum 6 to looped/cyclic peptides of protein X2 of SARS-CoV Urbani” value [1] of the same sequence?
Its value is 0.2.

And the “Binding of serum 37 to linear peptides of protein X2” value [1]?
Its value is 0.6.

What about the “Binding of serum 37 to looped/cyclic peptides of protein X2 of SARS-CoV Urbani” value [1] of the same sequence?
Its value is 0.5.

What about the “Binding of serum 62 to linear peptides of protein X2” value [1] of the same sequence?
Its value is 0.6.

And the “Binding of serum 62 to looped/cyclic peptides of protein X2 of SARS-CoV Urbani” value [1]?
The value was 0.7.

What about the “Binding of serum London to linear peptides of protein X2” value [1] of the same sequence?
Its value is 0.5.

What about the “Binding of serum London to looped/cyclic peptides of protein X2 of SARS-CoV Urbani” value [1] of the same sequence?
Its value is 0.2.

And the “Binding of serum SARS-green to linear peptides of protein X2” value [1]?
The value was 0.7.

And the “Binding of serum SARS-green to looped/cyclic peptides of protein X2 of SARS-CoV Urbani” value [1]?
The value was 0.4.

And the “Binding of serum SARS-yellow to linear peptides of protein X2” value [1]?
Its value is 0.4.

And the “Binding of serum SARS-yellow to looped/cyclic peptides of protein X2 of SARS-CoV Urbani” value [1]?
Its value is 0.5.

What about the “Binding of Control Serum Blood-Bank to Looped peptides” value [2] of the same sequence?
Its value is 0.7.

And the “Binding of Control serum Blood-bank to linear peptides” value [2]?
Its value is 0.5.

And the “Binding of Control serum LUMC to linear peptides” value [2]?
Its value is 0.4.

And the “Binding of Control serum LUMC to looped peptides” value [2]?
The value was 0.7.

What about the “Binding of a rabbit serum to linear peptides” value [3] of the same sequence?
Its value is 0.2.

And the “Binding of a rabbit serum to looped peptides” value [3]?
Its value is 0.4.

How did the “Binding of serum 1a to linear peptides of protein M of SARS-CoV Urbani” value [1] turn out when DIKDLPKEITVATSR was run?
The value was 0.7.

And the “Binding of serum 1a to looped/cyclic peptides of protein M of SARS-CoV Urbani” value [1]?
Its value is 0.6.

What about the “Binding of serum 1b to linear peptides of protein M of SARS-CoV Urbani” value [1] of the same sequence?
Its value is 0.5.

What about the “Binding of serum 1b to looped/cyclic peptides of protein M of SARS-CoV Urbani” value [1] of the same sequence?
Its value is 0.6.

And the “Binding of serum 2 to linear peptides of protein M of SARS-CoV Urbani” value [1]?
Its value is 0.5.

And the “Binding of serum 2 to looped/cyclic peptides of protein M of SARS-CoV Urbani” value [1]?
Its value is 0.7.

And the “Binding of serum 6 to linear peptides of protein M of SARS-CoV Urbani” value [1]?
Its value is 0.5.

And the “Binding of serum 6 to looped/cyclic peptides of protein M of SARS-CoV Urbani” value [1]?
The value was 0.8.

And the “Binding of serum 37 to linear peptides of protein M of SARS-CoV Urbani” value [1]?
The value was 0.6.

What about the “Binding of serum 37 to looped/cyclic peptides of protein M of SARS-CoV Urbani” value [1] of the same sequence?
The value was 0.9.

What about the “Binding of serum 62 to linear peptides of protein M of SARS-CoV Urbani” value [1] of the same sequence?
The value was 0.5.

And the “Binding of serum 62 to looped/cyclic peptides of protein M of SARS-CoV Urbani” value [1]?
The value was 0.7.

What about the “Binding of serum London to linear peptides of protein M of SARS-CoV Urbani” value [1] of the same sequence?
The value was 0.4.

And the “Binding of serum London to looped/cyclic peptides of protein M of SARS-CoV Urbani” value [1]?
Its value is 0.3.

And the “Binding of serum SARS-green to linear peptides of protein M of SARS-CoV Urbani” value [1]?
The value was 0.5.

And the “Binding of serum SARS-green to looped/cyclic peptides of protein M of SARS-CoV Urbani” value [1]?
The value was 0.4.

What about the “Binding of serum SARS-yellow to linear peptides of protein M of SARS-CoV Urbani” value [1] of the same sequence?
The value was 0.2.

What about the “Binding of serum SARS-yellow to looped/cyclic peptides of protein M of SARS-CoV Urbani” value [1] of the same sequence?
The value was 0.7.

And the “Binding of Control Serum Blood-Bank to Looped peptides of the protein M of SARS-CoV Urbani” value [2]?
The value was 0.8.

What about the “Binding of Control serum Blood-bank to linear peptides of the protein M of SARS-CoV Urbani” value [2] of the same sequence?
Its value is 0.6.

What about the “Binding of Control serum LUMC to linear peptides of the protein M of SARS-CoV Urbani” value [2] of the same sequence?
Its value is 0.5.

What about the “Binding of Control serum LUMC to looped peptides of the protein M of SARS-CoV Urbani” value [2] of the same sequence?
The value was 0.9.

What about the “Rabbit serum linear peptides” value [3] of the same sequence?
The value was 0.2.

What about the “Rabbit serum looped peptides” value [3] of the same sequence?
Its value is 0.3.

What does the source list for LLNVPLRGTIVTRPL?
Binding of serum 1a to linear peptides of protein M of SARS-CoV Urbani [1]: 0.8; Binding of serum 1b to linear peptides of protein M of SARS-CoV Urbani [1]: 0.5; Binding of serum 2 to linear peptides of protein M of SARS-CoV Urbani [1]: 0.5; Binding of serum 6 to linear peptides of protein M of SARS-CoV Urbani [1]: 0.5; Binding of serum 37 to linear peptides of protein M of SARS-CoV Urbani [1]: 0.6; Binding of serum 62 to linear peptides of protein M of SARS-CoV Urbani [1]: 0.7; Binding of serum London to linear peptides of protein M of SARS-CoV Urbani [1]: 0.4; Binding of serum SARS-green to linear peptides of protein M of SARS-CoV Urbani [1]: 0.3; Binding of serum SARS-yellow to linear peptides of protein M of SARS-CoV Urbani [1]: 0.1; Recognition of the peptide by sera of SARS-CoV infected individuals, and form (linear, looped/cyclic) in which it is recognized [1]: recognized in looped/cyclic form; Binding of Control Serum Blood-Bank to Looped peptides of the protein M of SARS-CoV Urbani [2]: 0.9; Binding of Control serum Blood-bank to linear peptides of the protein M of SARS-CoV Urbani [2]: 0.7; Binding of Control serum LUMC to linear peptides of the protein M of SARS-CoV Urbani [2]: 0.4; Binding of Control serum LUMC to looped peptides of the protein M of SARS-CoV Urbani [2]: 0.5; Rabbit serum linear peptides [3]: 0.4; Rabbit serum looped peptides [3]: 0.0
